Source: US4053603A, “Benzylisoquinoline derivatives, and use as anti-arrhythmic drugs” (Astra Pharmaceutical Products, Inc., priority 1976, dated 1977)
“And” between values parts separate entries of the source, which are not always exact repeats. Identical values can stand only once. “Also recorded” adds a separate entry of the source. Like-named read-outs stand apart in the source and are kept apart here.

Key:
[1] = system: chloroform-induced ventricular fibrillation; test: protection against chloroform-induced ventricular fibrillation in mice; type: in vivo, mouse (female Swiss albino, Ham/ICR); details: for relative Potency (molar basis): ED50^-1 in mmol/kg, standardized to compound 1 = 1; for ED50: Mus musculus, sc, read-out: ED50 for protecting against fibrillation; for antiarrhythmic activity (in words): chloroform fibrillation
Procedure: (§1) Ventricular fibrillation was produced in female Swiss albino mice (Ham/ICR weighing 18-25g.) essentially according to the method described by Lawson in J. Pharm, Exp. Therap. 160, 22 (1968).
The mice were placed individually into a 2,000 ml. beaker with cotton and 50 ml. of chloroform. Immediately after cessation of respiration the mouse was removed from the beaker, the thorax opened and the heart examined for the presence or absence of ventricular fibrillation. Each heart was stimulated by touching with forceps, and the nature of the cardiac rhythm was noted and confirmed by electrocardiographic recordings. The heart was considered to be fibrillating if fine tremulous movements were present on the surface of the ventricle and persisted for at least five seconds after the mechanical stimulus. Ventricular fibrillation was considered absent in those animals in which coordinated ventricular activity was evident following such procedures.
(§2) For initial evaluation of antiarrhythmic activity and toxicity of test compounds, a dose of 100 mg/kg (calculated for the base form, 1% solution in 0.9% saline, adjusted to pH 6-7) was administered subcutaneously to a group of 10 non-fasted, randomly selected mice. […] After 20 minutes they were exposed to chloroform vapors and tested for protection against fibrillation.
For determination of ED50 and relative potency of the compounds, three log-spaced doses of drug were selected to give a low, intermediate, and high degree of protection against fibrillation. Each dose was administered to 10 mice.
The data obtained from the three point assay was computer-analyzed using Berkson's minimum logit chi square analysis. The program was designed to give ED50 values with 95 percent Fieller limits.

[2] = system: mice; test: central nervous system toxicity observation in mice (ataxia, convulsions, loss of righting reflex, death); type: in vivo, mouse (female Swiss albino, Ham/ICR); details: for Toxicity: Death (number of mice) / Toxicity: Ataxia (number of mice) / Toxicity: Con. (Convulsions) (number of mice) / Toxicity: LRR (Loss of righting reflex) (number of mice): 100 mg/kg s.c., 10 mice; for Toxicity: Ataxia (number of mice) / Toxicity: Con. (Convulsions) (number of mice) / Toxicity: LRR (Loss of righting reflex) (number of mice): 20 min observation; for toxicity (in words): mice
Procedure: as §1, §2

[3] = system: ventricular arrhythmias in coronary ligated dogs; test: coronary ligated dogs, antiarrhythmic effect and toxicity, intravenous infusion (Harris procedure); type: in vivo, dog; details: for Mean Arterial Blood Pressure, values after administration / Ventricular Rate, values after administration: i.v. infusion 0.5 mg/kg/minute
Procedure: (§3) Further confirmation of the superiority of the secondary amine compound was provided by comparison of the secondary and tertiary amines in tests on coronary ligated dogs. The tests were conducted in accordance with the procedure of Harris given in Circulation, 1, 1318, 1950. The drugs were administered by the intravenous route by infusion at a dosage of 0.5 mg./kg./minute, in a volume of 0.97 ml./minute and a concentration of 5.2-4.3 mg/ml. The animals were weighed and the solutions prepared on the day of the experiment.

[4] = system: mice; test: central nervous system toxicity observation in mice (ataxia, convulsions, loss of righting reflex, death); type: in vivo, mouse (female Swiss albino, Ham/ICR); details: 138 mg/kg s.c., 10 mice
[5] = system: heart; details: cited from earlier work
[6] = coronary ligated dogs, antiarrhythmic effect and toxicity, intravenous infusion (Harris procedure); type: in vivo, dog; details: dog, in vivo, iv
Procedure: as §3

[7] = system: central nervous system; details: metabolite of lidocaine, high doses of lidocaine; cited from earlier work
[8] = mice, three log-spaced doses, 10 mice each, 95% Fieller limits in brackets

Structure (SMILES): COc1ccc(Cc2nccc3ccccc23)c(NC(=O)C(C)N)c1OC (stereo not drawn) [Compound 5]
- relative Potency (molar basis) [1]: 1
- ED50 [1, 8]: 257 mg/kg
- antiarrhythmic activity (in words) ([1]; mice): did not show any outstanding properties
- Toxicity: Death (number of mice) [2]: 0
- Toxicity: Ataxia (number of mice) [2]: 0
- Toxicity: Con. (Convulsions) (number of mice) [2]: 0
- Toxicity: LRR (Loss of righting reflex) (number of mice) [2]: 0

Structure (SMILES): CCNCC(=O)Nc1c(Cc2nccc3ccccc23)ccc(OC)c1OC [Compound 4, 1-(2-[2-ethylamino-acetyl]amino-3,4-dimethoxybenzyl)isoquinoline]
- relative Potency (molar basis) [1]: 3
- ED50 [1, 8]: 54 mg/kg
- antiarrhythmic activity (in words) ([1]; mice): markedly higher antiarrhythmic potency than both its tertiary amine congener, compound 3, and lidocaine
- abolishing severe arrhythmias (in words) ([3]; coronary ligated dogs, i.v.): effective in abolishing severe arrhythmias
- central nervous system and cardiovascular toxicity at effective doses (in words) ([3]; coronary ligated dogs, i.v.): free from indications of central nervous system and cardiovascular toxicity
- dose producing toxicity ([3]; dog, i.v. infusion): (c)
- Mean Arterial Blood Pressure, values after administration ([3]; dog): 125 and 85
- Ventricular Rate, values after administration ([3]; dog): 147 and 123
- Toxicity: Death (number of mice) [2]: 0
- Toxicity: Ataxia (number of mice) [2]: 0
- Toxicity: Con. (Convulsions) (number of mice) [2]: 0
- Toxicity: LRR (Loss of righting reflex) (number of mice) [2]: 0

Structure (SMILES): CCN(CC)CC(=O)Nc1c(CC2c3ccccc3CCN2C)ccc(OC)c1OC (stereo not drawn) [Compound 7]
- relative Potency (molar basis) [1]: 1
- ED50 [1, 8]: 160 mg/kg
- antiarrhythmic activity (in words) ([1]; mice): essentially the same protection
- Toxicity: Ataxia (number of mice) [4]: 0
- Toxicity: Con. (Convulsions) (number of mice) [4]: 0
- Toxicity: Death (number of mice) [4]: 0
- Toxicity: LRR (Loss of righting reflex) (number of mice) [4]: 0
- toxicity (in words) [2]: comparable toxicity characteristics, as compound 1

Structure (SMILES): COc1ccc(Cc2nccc3cc(OC)c(OC)cc23)cc1OC [Papaverine, reference compound]
- antiarrhythmic activity (in words) ([1]; mice): only little antiarrhythmic activity
- cardiac effect / arrhythmia at clinical doses (in words) ([5]; background, clinical use): doses required were also found to cause dangerous arrhythmias by depression of A-V and intraventricular conduction
- Toxicity: Death (number of mice) [2]: 0
- Toxicity: Ataxia (number of mice) [2]: 2
- Toxicity: Con. (Convulsions) (number of mice) [2]: 0
- Toxicity: LRR (Loss of righting reflex) (number of mice) [2]: 0
- toxicity (in words) [2]: some evidence of toxicity

Structure (SMILES): CCN(CC)CC(=O)Nc1c(Cc2nccc3ccccc23)ccc(OC)c1OC [Compound 3]
- relative Potency (molar basis) [1]: 1
- ED50 [1, 8]: 146 mg/kg
- antiarrhythmic activity (in words) ([1]; mice): greater antiarrhythmic activity
- dose producing toxicity ([6]; Dose Producing Toxicity (convulsion)): 15.8 mg/kg
- dose producing toxicity ([6]; Dose Producing Toxicity (profound head tremors)): 12.5 mg/kg
- abolishing severe arrhythmias (in words) ([3]; coronary ligated dogs, i.v.): effective in abolishing severe arrhythmias
- Mean Arterial Blood Pressure, values after administration ([3]; dog): 100 and 90
- Ventricular Rate, values after administration ([3]; dog): 153 and 135
- Dose Producing Toxicity (profound head tremors) ([3]; dog, in vivo, iv): 6.25 mg/kg
- Toxicity: Death (number of mice) [2]: 0
- Toxicity: Ataxia (number of mice) [2]: 0
- Toxicity: Con. (Convulsions) (number of mice) [2]: 0
- Toxicity: LRR (Loss of righting reflex) (number of mice) [2]: 0
- toxicity (in words) [2]: lower toxicity

Structure (SMILES): CCNCC(=O)Nc1cc(OC)c(OC)cc1Cc1nccc2cc(OC)c(OC)cc12 [Compound 2]
- relative Potency (molar basis) [1]: 1
- ED50 [1, 8]: 142 mg/kg
- antiarrhythmic activity (in words) ([1]; mice): comparable protection against fibrillation at the same test dose
- Toxicity: Death (number of mice) [2]: 0
- Toxicity: Ataxia (number of mice) [2]: 9
- Toxicity: Con. (Convulsions) (number of mice) [2]: 0
- Toxicity: LRR (Loss of righting reflex) (number of mice) [2]: 0
- toxicity (in words) [2]: toxicity symptoms; also recorded: higher toxicity

Structure (SMILES): CCN(CC)CC(=O)Nc1cc(OC)c(OC)cc1Cc1nccc2ccccc12 [Compound 6]
- Toxicity: Death (number of mice) [2]: 0
- Toxicity: Ataxia (number of mice) [2]: 7
- Toxicity: Con. (Convulsions) (number of mice) [2]: 0
- Toxicity: LRR (Loss of righting reflex) (number of mice) [2]: 0

Structure (SMILES): CCN(CC)CC(=O)Nc1cc(OC)c(OC)cc1Cc1nccc2cc(OC)c(OC)cc12 [Compound 1]
- ED50 [1, 8]: 211 mg/kg
- antiarrhythmic activity (in words) ([1]; mice): increased the antiarrhythmic activity
- Toxicity: Death (number of mice) [2]: 0
- Toxicity: Ataxia (number of mice) [2]: 0
- Toxicity: Con. (Convulsions) (number of mice) [2]: 0
- Toxicity: LRR (Loss of righting reflex) (number of mice) [2]: 0
- toxicity (in words) [2]: decreased the central nervous system toxicity

Structure (SMILES): CCN(CC)CC(=O)Nc1c(C)cccc1C [Lidocaine, 2-diethylamino-2',6'-acetoxylidide, reference compound]
- ED50 [1]: 62 mg/kg
- antiarrhythmic activity (in words) ([1]; mice): strong antiarrhythmic activity
- antiarrhythmic effectiveness (in words) ([5]; intravenous and intramuscular): proved effective as an antiarrhythmic drug administered both intravenously and intramuscularly
- Toxicity: Death (number of mice) [2]: 0

Structure (SMILES): CCNCC(=O)Nc1c(C)cccc1C [monoethylglycinexylidide]
- contribution to convulsive symptoms of CNS toxicity (in words) [7]: appears to be the metabolite contributing to the production of the convulsive symptoms of central nervous system toxicity with high doses of lidocaine
